{"source": "patent US11633379B2", "about": "“Methods of inhibiting PCSK9” (TRUSTEES OF DARTMOUTH COLLEGE, priority 2017, dated 2023)", "key": {"apoE": {"system": "apoE", "experiment": "Intracellular apoE, HepG2 (western blot)", "type": "cell-based, human", "conditions": "40 hours of incubation, HepG2, FIG. 7C", "description": "[…] […] Protein extracts (25 μgr) were used for immunodetection of intracellular […] (western blot analysis) with a commercially available primary antibody against apoE (ABCAM, catalog #1906), HRP-conjugated secondary antibody (SIGMA-ALDRIC, catalog # A5420) visualized using an enhanced chemiluminescence (ECL) solution (Cumaric acid, Luminol and hydrogen peroxide), developed in a LiCore imager."}, "albumin [1]": {"system": "albumin", "experiment": "Intracellular albumin, HepG2 (ELISA)", "type": "cell-based, human", "experimental": "After 24 hours media was aspirated, cells were washed with HBSS followed by protein extraction using commercially available RIPA buffer (SIGMA-ALDRICH, catalog #20-188). Protein extracts (5 μgr) were used for albumin detection using commercially available ELISA kit (ABCAM, catalog #108788) following the manufacturer instruction."}, "PCSK9 [2]": {"system": "PCSK9", "experiment": "Plasma PCSK9 levels in mice (ELISA)", "type": "in vivo", "experimental": "1) Single-dose experiments: mice were administered (oral gavage or intra-peritoneal injection) with 200 μl of 34 (30 mg/kg or 100 mg/kg) in 0.1% Tween 80+1% hydroxyethyl cellulose (HEC) in buffered (PBS pH7.4) solution. After 34 administration, 50-70 μl of blood was collected from the retro-orbital plexus every 4-6 hours (for a total of 24 hours). Blood was left to clot at room temperature for 20 min, followed by serum separation (spin at 1000 g for 10 min). Serum was analyzed as specified in the “Serum analyses” section.\n2) Daily dosage experiments: mice were administered daily oral gavage with 200 μl of 34 (100 mg/kg) in 0.1% Tween80+1% hydroxyethyl cellulose (HEC) in buffered (PBS pH7.4) solution. 50-70 μl of blood was collected from the retro-orbital plexus on day 3 and day 5 after 34 administration, on day 5 mice were euthanized and liver were collected and analyzed as mentioned below under the “Liver analyses” section. Blood was left to clot at room temperature for 20 min, followed by serum separation (spin at 1000 g for 10 min). Serum was analyzed as described below:\nPCSK9 levels—using commercially available ELISA kit (MBL-international, catalog # CY-8079) following the manufacturer instruction."}, "LDLR [3]": {"system": "LDLR", "experiment": "LDLR levels in HepG2 cells (western blot)", "type": "cell-based, human", "conditions": "5 μM, FIG. 3", "description": "Protein extracts (IMO were used for immunodetection of intracellular LDLR (western blot analysis) with a commercially available primary antibody against LDLR (ABCAM, catalog #14056), HRP-conjugated secondary antibody (ABCAM, catalog #97135) visualized using an enhanced chemiluminescence (ECL) solution (Cumaric acid, Luminol and hydrogen peroxide), developed in a LiCore imager. See FIG. 3."}, "PCSK9 [4]": {"system": "PCSK9", "experiment": "Intracellular PCSK9 protein in HepG2 cells (western blot)", "type": "cell-based, human", "conditions": "FIG. 1A", "experimental": "To study whether 34 affect intracellular PCSK9 levels we used 1×10^6 HepG2 cells in 6-well culture plates, followed by incubation with media+0.1% DMSO or increasing concentration (0.2-50 uM) of 34 in 0.1% DMSO for 24 hours. After 24 hours media was aspirated, cells were washed with HBSS followed by protein extraction using commercially available RIPA buffer (SIGMA-ALDRICH, catalog #20-188). Protein extracts (20 μg) were used for immunodetection of intracellular PCSK9 (western blot analysis) with a commercially available primary antibody against PCSK9 (MBL-international, catalog # CY-1037), HRP-conjugated secondary antibody (SIGMA-ALDRICH, catalog #12-348) visualized using an enhanced chemiluminescence (ECL) solution (Cumaric acid, Luminol and hydrogen peroxide), developed in a LiCore imager."}, "LDLR [5]": {"system": "LDLR", "experiment": "Hepatic LDLR levels in mice (western blot)", "type": "in vivo", "conditions": "livers on day 5 after daily oral 100 mg/kg/day, FIG. 14B", "experimental": "2) Daily dosage experiments: mice were administered daily oral gavage with 200 μl of 34 (100 mg/kg) in 0.1% Tween80+1% hydroxyethyl cellulose (HEC) in buffered (PBS pH7.4) solution. 50-70 μl of blood was collected from the retro-orbital plexus on day 3 and day 5 after 34 administration, on day 5 mice were euthanized and liver were collected and analyzed as mentioned below under the “Liver analyses” section. Blood was left to clot at room temperature for 20 min, followed by serum separation (spin at 1000 g for 10 min). Serum was analyzed as described below: Hepatic LDLR levels—To study whether 34 affect hepatic LDLR levels we used 10 mg of PBS-flushed livers. Livers were minced and proteins were extracted using available RIPA buffer (SIGMA-ALDRICH, catalog #20-188). Protein extracts (5 μgr) were used for immunodetection of intracellular LDLR (western blot analysis) with a commercially available primary antibody against LDLR (ABCAM, catalog #14056), HRP-conjugated secondary antibody (ABCAM, catalog #97135) visualized using an enhanced chemiluminescence (ECL) solution (Cumaric acid, Luminol and hydrogen peroxide), developed in a LiCore imager."}, "albumin [6]": {"system": "albumin", "experiment": "Albumin secretion, HepG2 (ELISA)", "type": "cell-based, human", "experimental": "The collected media was analyzed for albumin levels using commercially available ELISA kit (ABCAM, catalog #108788) following the manufacturer instruction."}, "PCSK9 [7]": {"system": "PCSK9", "experiment": "Basal_PCSK9 HepG2, primary SP and CRC (secreted PCSK9, ELISA)", "type": "cell-based, human", "experimental": "To study the effect of the compounds on PCSK9 secretion we used 1×10^6 HepG2 cells in 6-well culture plates, followed by incubation with media only, media+0.1% DMSO or Media+5 uM of 31/33/34/35 in 0.1% DMSO and collection of 50 ul of media at 8, 16, 24 and 40 hours or incubation with increasing concentration (0.2-50 μM) of 34 in 0.1% DMSO for 24 hours and collection of 50 ul of media. The collected media was analyzed for PCSK9 levels using commercially available ELISA kit (MBL-international, catalog # CY-8079) following the manufacturer instruction.\nThe below data (Table 2) was generated using the assays as discussed in Examples 1-2. Blanks mean no testing was performed. […] For the SP assays, the higher the number, the higher the inhibition, e.g., the better the activity of the compound. Compounds with a determined IC50 are particularly active, the IC50 values were determined via dose response curve (under the heading CRC which stands for concentration response curve aka dose response curve)."}, "[8]": {"conditions": "20 μM and 50 μM, HepG2, result of increased cell death"}}, "data": [{"smiles": "CC(=O)Oc1ccc(C2CC3(CCCCC3)c3c2[nH]c2ccccc32)cc1", "note": "(stereo not shown) [Compound 34]", "values": [{"measurement": "intracellular apoE levels", "setting": "apoE", "result": "no changes in secreted, intracellular, or mRNA levels of apoE"}, {"measurement": "intracellular albumin", "setting": "albumin [1]; [8]", "result": "Reduction in secreted and intracellular albumin"}, {"measurement": "intracellular albumin", "setting": "albumin [1]; up to 10 μM, 40 hours of incubation, HepG2, FIG. 6B", "result": "no changes in secreted or intracellular albumin"}, {"measurement": "individual mice with a drop in PCSK9 levels", "setting": "PCSK9 [2]; 5-day oral 100 mg/kg/day, FIG. 12B", "result": "all mice receiving compound 34 presented with a drop in PCSK9 levels"}, {"measurement": "drop in plasma PCSK9", "setting": "PCSK9 [2]; 5-day oral 100 mg/kg/day, day 5, FIG. 12A", "result": 36.2, "unit": "%"}, {"measurement": "maximal drop in plasma PCSK9", "setting": "PCSK9 [2]; single 30 mg/kg intraperitoneal (IP) injection, 4 hours after administration, FIG. 9", "result": 43.2, "unit": "%"}, {"measurement": "maximal drop in plasma PCSK9", "setting": "PCSK9 [2]; single 30 mg/kg oral gavage, 4 hours after administration, FIG. 9", "result": 22.5, "unit": "%"}, {"measurement": "time after administration at which PCSK9 levels are back to baseline", "setting": "PCSK9 [2]; single 30 mg/kg, IP or oral, FIG. 9", "result": 20, "unit": "h"}, {"measurement": "maximal drop in plasma PCSK9", "setting": "PCSK9 [2]; single oral 30 mg/kg, 6 hours after administration, FIG. 10A", "result": 28.5, "unit": "%"}, {"measurement": "time after administration at which PCSK9 levels are back to baseline", "setting": "PCSK9 [2]; single oral 30 mg/kg, FIG. 10A", "result": 18, "unit": "h"}, {"measurement": "maximal drop in plasma PCSK9", "setting": "PCSK9 [2]; single oral 100 mg/kg, 6 hours after administration, FIG. 10B", "result": 33.4, "unit": "%"}, {"measurement": "time after administration at which PCSK9 levels are back to baseline", "setting": "PCSK9 [2]; single oral 100 mg/kg, FIG. 10B", "result": 24, "unit": "h"}, {"measurement": "increase in LDLR protein levels", "setting": "LDLR [3]", "result": 21, "unit": "%"}, {"measurement": "intracellular PCSK9, pro-protein and mature forms", "setting": "PCSK9 [4]", "result": "reduces levels of both the pro-protein and the mature forms of PCSK9 in a dose-dependent manner"}, {"measurement": "increase in hepatic LDLR", "setting": "LDLR [5]", "result": 16.2, "unit": "%"}, {"measurement": "secreted albumin", "setting": "albumin [6]; [8]", "result": "Reduction in secreted and intracellular albumin"}, {"measurement": "secreted albumin", "setting": "albumin [6]; up to 10 μM, 40 hours of incubation, HepG2, FIG. 6A", "result": "no changes in secreted or intracellular albumin"}, {"measurement": "Primary SP Basal_PCSK9 HepG2 SP % Inhib @ 5 μM", "setting": "PCSK9 [7]; 5 μM, HepG2, single point", "result": 5.2, "unit": "%"}, {"measurement": "accumulation of PCSK9 in culture media", "setting": "PCSK9 [7]; 5 μM, HepG2 cells, FIGS. 2A-2B", "result": "significantly reduced accumulation of PCSK9 in culture media in a time-dependent and concentration-dependent manner"}, {"measurement": "Primary SP Basal_PCSK9 HepG2 SP % Inhib @ 50 μM", "setting": "PCSK9 [7]; 50 μM, HepG2, single point", "result": 100.1, "unit": "%"}, {"measurement": "IC50", "setting": "PCSK9 [7]; HepG2, concentration response curve", "result": 3.5, "unit": "µM"}, {"measurement": "activity rating in words (PCSK9 inhibition, Table 2)", "setting": "PCSK9 [7]; summary of Table 2 data", "result": "particularly strongly active"}]}]}
